{"source": "patent US20230348493A1", "about": "“COMPOUND FOR ADJUSTING ACTIVITY OF NMDA RECEPTOR, AND PHARMACEUTICAL COMPOSITION AND USE THEREOF” (BEIJING GREATWAY PHARMACEUTICAL TECHNOLOGY CO., LTD., priority 2020, published 2023)", "key": {"[1]": {"target": "T1, NMDA receptor (Rattus norvegicus, UniProt P35439)", "T1 construct": "After the rats were decapitated, the prefrontal cortex and hippocampus were rapidly separated on ice; from tissue; host or cells: SD male rat prefrontal cortex and hippocampus, crude synaptosomes", "experiment": "Inhibition of [3H]-MK-801 binding to rat crude synaptosomes (receptor ligand binding assay)", "conditions": "affinity on NMDA; [3H]-MK-801 10 nM, rat prefrontal cortex and hippocampus crude synaptosomes; read-out: IC50", "procedure": "The affinity of the tested compounds on NMDA receptor was researched by receptor ligand binding assays.\nTen SD male rats of SPF grade were ordered and acclimated for 7 days for future use.\n(§1) After the rats were decapitated, the prefrontal cortex and hippocampus were rapidly separated on ice and weighed, 10 volumes of 50 mM Tris-HCl buffer (50 mM Tris-HCl, 5 mM MgCl2·6H2O, 1 mM EDTA, 0.5% (W/V) BSA, 1 mM PMSF, 0.32 M sucrose, pH 7.4) was added, and the mixture was homogenized for five times at 1500 revolutions/min with 30 s each time. A homogenate was centrifuged for 10 min at 1000×g, and a supernatant was taken and centrifuged for 10 min at 40,000×g, the precipitates were collected, re-suspended with volumes of Tris-HCl buffer, incubated at 37° C. for 10 min, and centrifuged for 10 min at 40,000×g, finally the precipitates were re-suspended with the above buffer, aliquoted and stored at −80° C. for later use.\n(2) Detection of Inhibitory Function of Tested Medicines on Binding of Crude Synaptosomes in Rats to [^3H]-MK-801\n50 μg of rat crude synaptosomal proteins was added to all tubes respectively. A volume of 50 μl of MK-801 (dizocilpine) was added to a non-specific binding tube to achieve a final concentration of 100 μM, and the materials were reacted for 15 min in advance. 20 μL of control drug at corresponding concentration was added to the test tube for reaction for 15 min. A volume of 30 μl of labeled ligand [^3H]-MK-801 was successively added to all tubes to achieve a final concentration of 10 nM. All reaction tubes were supplemented to a volume of 200 μl with 50 mM Tris-HCl buffer (50 mM Tris-HCl, 5 mM MgCl2·6H2O, 1 mM EDTA, 0.5% (WN) BSA, 0.1% NaN3, pH 7.4). A reaction was carried out at 37° C. for 10 min. A type-49 glass fiber filter membrane was prepared and a sample was applied at the same time. The filter membrane was placed in a multi-head cell collector, and a reaction system was subjected to suction filtration under negative pressure and washed with an ice-cold 50 mM Tris-HCl buffer, 10 ml each time, for a total of 5 times. After suction drying, 1 ml of scintillation liquid was added to the filter membrane, the filter membrane was placed on a shaker for shaking for 1.5 h and then placed in a liquid scintillation counter on the next day to determine the radioactive intensity.\nGraphPad5.0 software was used to analyze the data, and the percentage of competitive inhibition was calculated through nonlinear fitting, wherein:\nPercentage of competitive inhibition %=((total binding tube cpm−compound cpm)/(total binding tube cpm−non-specific binding tube cpm))×100%;\nSpecific binding amount=total binding amount−non-specific binding amount, wherein each binding site was determined by double compound tubes."}, "[2]": {"experiment": "In-vivo metabolism (pharmacokinetic) study in rats, oral / tail intravenous", "conditions": "rat, plasma; for bioavailability: male, SD, oral 10 mg/kg vs intravenous 1 mg/kg, rats; for AUC(0-t) / Cmax: male SD rats", "procedure": "The pharmacokinetic parameters such as exposure of plasma concentrations of the compounds of examples were evaluated by oral/tail intravenous injection model tests in rats in order to evaluate the in-vivo metabolic stability in rats.\nThe male SD rats weighing 200±20 g and being SPF grade were used in this experiment and purchased from SPF.\nPreparation of intravenous solution: 1 mg of each tested medicine was weighed accurately, and a volume was metered to 5 mL with 0.9% sodium chloride solution to prepare 0.2 mg/mL. A dose volume was 1 mL for per 200 g of weight, and the dose was 1 mg for per 1 kg of weight based on the concentration conversion.\nPreparation of intragastric solution: 10 mg of each tested medicine was accurately weighed, and a volume was metered to 10 mL with 0.9% sodium chloride solution to prepare 1 mg/mL of the solution. A dose volume was 2 mL for per 200 g of weight, and the dose was 10 mg for per 1 kg of weight based on the concentration conversion.\nRats were randomly divided into 8 groups, 6 rats were in each group, oral gavage administration and tail intravenous administration were performed according to the above doses. About 0.2 mL of orbital blood was collected before administration and at 2 min, 5 min, 15 min, 30 min, 1 h, 2 h, 3 h, 4 h and 6 h after administration, respectively, and centrifuged at 3000 rpm for 10 min at 4° C., and a supernatant was taken for LC/MS/MS determination. A DAS pharmacokinetics program was used to analyze the measured data and calculate the main pharmacokinetic parameters."}, "[3]": {"tested_on": "rats", "experiment": "Forced swimming test in rats", "format": "in vivo", "conditions": "Rattus norvegicus, Po", "procedure": "Pharmacodynamic evaluation was performed by the forced swimming tests in rats. The experimental animals were male SD rats weighing 150 g-180 g and being SPF grade, and acclimated for one week after purchase, and then subjected to forced swimming tests, the rats need be fasted for 12 hours before the tests. The compounds of examples were dissolved with normal saline, and blank control group (normal saline) and example compound administration group were established. 8-10 rats were provided for each group. On the day before the tests, the rats were placed in a glass cylinder with a height of 40 cm, an inner diameter of 18 cm, and a water depth of 23 cm for pre-swimming for 15 min, and a water temperature was 28° C. After the pre-swimming the rats were removed, wiped with a dry cloth, and dried with an electrical heater, then returned to a rearing cage, and administered. A formal forced swimming test was performed on the next day for a total of 5 min. The accumulated immobility time within 5 min was recorded, and a second forced swimming test was performed on the seventh day; the criteria for determining immobility were that the rats stopped struggling in the water, were in a floating state, and had only slight limb movements to keep the head floating on the water surface. The results are shown in Table 4, and the experimental data were statistically analyzed by GraphPad Prism 5.0 software."}, "[4]": {"target": "T1, NMDA receptor", "experiment": "NMDA receptor agonistic properties in rat crude synaptosomal proteins (maximum [3H]-MK-801 binding vs 1 mM glycine)", "format": "biochemical", "conditions": "maximum [3H]-MK-801 binding % relative to 1 mM glycine; 50 μM glutamic acid", "procedure": "as §1\n(3) Detection of Influence of Tested Medicines on NMDA Receptor Agonistic Properties in Rat Crude Synaptosomal Proteins\n100 μg of rat crude synaptosomal proteins was added to all tubes respectively. 50 μl of 5,7-dichlorokynurenic acid was added to a non-specific binding tube to achieve a final concentration of 10 μM. All tubes were preloaded with 50 μM of glutamic acid, and the materials were reacted for 15 min in advance. 20 μL of control drug at corresponding concentration was added to the test tube, and then reacted for 15 min. 1 mM glycine was added to the maximum reaction tube. A volume of 30 μl of labeled ligand [^3H]-MK-801 was successively added to all tubes to achieve a final concentration of 10 nM, and reacted for 15 min. All reaction tubes were supplemented to a volume of 500 μl with 50 mM Tris-HCl buffer (50 mM Tris-HCl, 5 mM MgCl2·6H2O, 1 mM EDTA, 0.5% (WN) BSA, 0.1% NaN3, pH 7.4). A reaction was carried out at 37° C. for 15 min. A type-49 glass fiber filter membrane was prepared and a sample was applied at the same time. The filter membrane was placed in a multi-head cell collector, and the reaction system was subjected to suction filtration under negative pressure and washed with an ice-cold 50 mM Tris-HCl buffer, 10 ml each time, for a total of 5 times. After suction drying, 1 ml of scintillation liquid was added to the filter membrane, the filter membrane was placed on the shaker for shaking for 1.5 h and then placed in the liquid scintillation counter on the next day to determine the radioactive intensity.\nIn an agonistic experiment, maximum [^3H]-MK-801 binding %=((tested compounds cpm−5,7 dichlorokynurenic acid cpm)/(1 mM glycine cpm−5,7 dichlorokynurenic acid cpm))×100%."}}, "note": "Like-named read-outs stand apart in the source and are kept apart here.", "data": [{"smiles": "CC(C)[C@H](N)C(=O)N1CC2(C1)N[C@H](C(N)=O)CS2.Cl", "note": "[A-260]", "values": [{"measurement": "IC50", "setting": "[1]", "result": 0.26, "unit": "nM"}, {"measurement": "bioavailability", "setting": "[2]", "result": 74.6, "unit": "%"}, {"measurement": "AUC(0-t)", "setting": "[2]; Intravenous injection, 1 mg/kg", "result": 1450, "unit": "ng·h/mL"}, {"measurement": "Cmax", "setting": "[2]; Intravenous injection, 1 mg/kg", "result": 2240, "unit": "ng/mL"}, {"measurement": "AUC(0-t)", "setting": "[2]; Oral, 10 mg/kg", "result": 10800, "unit": "ng·h/mL"}, {"measurement": "Cmax", "setting": "[2]; Oral, 10 mg/kg", "result": 6210, "unit": "ng/mL"}, {"measurement": "inhibition in vivo at 0.1 mg/kg", "setting": "[3]; 48 h, Day 2, *P<0.05, **P<0.01 compared with the control group, read-out: Reduction percentage (%) of floating time, Day 2", "result": 31.6, "unit": "%"}, {"measurement": "inhibition in vivo at 0.1 mg/kg", "setting": "[3]; 168 h, Day 7, *P<0.05, **P<0.01 compared with the control group, read-out: Reduction percentage (%) of floating time, Day 7", "result": 15.5, "unit": "%"}, {"measurement": "Maximum agonistic efficacy (%)", "setting": "[4]", "result": 26, "unit": "%"}]}, {"smiles": "C[C@@H](O)[C@H](N)C(=O)N1CCC2(CC1)N[C@H](C(N)=O)CS2.Cl", "note": "[A-274]", "values": [{"measurement": "IC50", "setting": "[1]", "result": 0.28, "unit": "nM"}, {"measurement": "bioavailability", "setting": "[2]", "result": 62.7, "unit": "%"}, {"measurement": "AUC(0-t)", "setting": "[2]; Intravenous injection, 1 mg/kg", "result": 1630, "unit": "ng·h/mL"}, {"measurement": "Cmax", "setting": "[2]; Intravenous injection, 1 mg/kg", "result": 2480, "unit": "ng/mL"}, {"measurement": "AUC(0-t)", "setting": "[2]; Oral, 10 mg/kg", "result": 3350, "unit": "ng·h/mL"}, {"measurement": "Cmax", "setting": "[2]; Oral, 10 mg/kg", "result": 1880, "unit": "ng/mL"}, {"measurement": "Maximum agonistic efficacy (%)", "setting": "[4]", "result": 55, "unit": "%"}]}, {"smiles": "C[C@@H](O)[C@H](N)C(=O)N1CCC2(C1)N[C@H](C(=O)N1CCCCC1)CS2.Cl", "note": "(stereo partly drawn) [A-421]", "values": [{"measurement": "IC50", "setting": "[1]", "result": 0.38, "unit": "nM"}, {"measurement": "Maximum agonistic efficacy (%)", "setting": "[4]", "result": 45, "unit": "%"}]}, {"smiles": "C[C@@H](O)[C@H](N)C(=O)N1CCC2(C1)N[C@H](C(=O)N1CCN(C)CC1)CS2.Cl", "note": "(stereo partly drawn) [A-429]", "values": [{"measurement": "IC50", "setting": "[1]", "result": 0.66, "unit": "nM"}, {"measurement": "Maximum agonistic efficacy (%)", "setting": "[4]", "result": 57, "unit": "%"}]}, {"smiles": "C[C@@H](O)[C@H](N)C(=O)N1CCC2(CC1)N[C@H](C(=O)N1CCCCC1)CS2.Cl", "note": "[A-437]", "values": [{"measurement": "IC50", "setting": "[1]", "result": 0.33, "unit": "nM"}, {"measurement": "Maximum agonistic efficacy (%)", "setting": "[4]", "result": 42, "unit": "%"}]}, {"smiles": "C[C@@H](O)[C@H](N)C(=O)N1CCC2(CC1)N[C@H](C(=O)N1CCSCC1)CS2.Cl", "note": "[A-449]", "values": [{"measurement": "IC50", "setting": "[1]", "result": 0.47, "unit": "nM"}, {"measurement": "Maximum agonistic efficacy (%)", "setting": "[4]", "result": 38, "unit": "%"}]}, {"smiles": "CN1CCN(C(=O)[C@@H]2CSC3(CCCN(C(=O)[C@@H](N)CO)C3)N2)CC1.Cl", "note": "(stereo partly drawn) [A-463]", "values": [{"measurement": "IC50", "setting": "[1]", "result": 0.52, "unit": "nM"}, {"measurement": "Maximum agonistic efficacy (%)", "setting": "[4]", "result": 59, "unit": "%"}]}, {"smiles": "Cl.N[C@@H](CO)C(=O)N1CC2(C1)N[C@H](C(=O)N1CCNCC1)CS2", "note": "[A-470]", "values": [{"measurement": "IC50", "setting": "[1]", "result": 0.35, "unit": "nM"}, {"measurement": "Maximum agonistic efficacy (%)", "setting": "[4]", "result": 33, "unit": "%"}]}, {"smiles": "Cl.N[C@@H](CO)C(=O)N1CCC2(CC1)N[C@H](C(=O)N1CCNCC1)CS2", "note": "[A-476]", "values": [{"measurement": "IC50", "setting": "[1]", "result": 0.96, "unit": "nM"}, {"measurement": "Maximum agonistic efficacy (%)", "setting": "[4]", "result": 56, "unit": "%"}]}]}
